Data reported in patent publication US20100144708A1, “HETEROCYCLIC COMPOUNDS CONTAINING NITROGEN ATOMS OR PHARMACEUTICALLY ACCEPTABLE SALTS THEREOF, PROCESS FOR THE PREPARATION THEREOF AND PHARMACEUTICAL COMPOSITION COMPRISING THE SAME FOR TREATMENT OF CANCER” (Korea Research Instititute of Bioscience and Biotechnology, priority 2006, published 2010).

What was measured:
Format in all cases: cell-based, Human
[1] = tested on: ACHN (kidney cancer); test: Test for inhibition of tumor cell growth (SRB), ACHN; conditions: 48 hours, SRB staining; for GI50: Homo sapiens, ACHN
Procedure: (§1) Human tumor cell lines, PC-3 (prostate cancer, ATCC, USA), MBA-MB-231 (breast cancer, ATCC, USA), ACHN (kidney cancer, ATCC, USA), and NUGC-3 (gastric cancer, ATCC, USA) were cultured in RPMI 1640 media containing 10% fetal bovine serum (FBS).
(§2) In order to measure anticancer activity, a suitable concentration of cells in RPMI 1640 media containing 5% fetal bovine serum (about 5×10^4 cells/□) was aliquotted in 96-well plates, and cultured in 5% CO2 at 37° C. On day one after aliquoting the cells, before the cells were treated with the compounds, in order to determine their concentration, 50[…] of 50% trichloroacetic acid was added to each well of time zero (T0) plate, and cells were fixed to determine zero point. The cells treated with the compounds were fixed on each well having 50[…] of 50% trichloroacetic acid after 48 hours. The final concentrations of the test compounds were 0.01, 0.03, 0.1, 0.3, and 1[…]/□. The fixed plate was washed with water and dried, and then 100[…] of 0.4% sulphorhodamine B (SRB) dissolved in 0.1% acetic acid was added to the each well to stain the cells. The plate was allowed to stand for 30 minutes, and then washed with 0.1% acetic acid. Then, the plate was dried at room temperature, and treated with 10 mM tris base (pH 10.5) to dissolve staining reagent. An absorbance measured at 540 nm was calculated as a percentage of the control group, and then the concentration of the compound that inhibited tumor cell growth (GI50(□/□)) by 50% was determined.

[2] = tested on: PC-3 (prostate cancer); test: Test for inhibition of tumor cell growth (SRB), PC-3; conditions: 48 hours, SRB staining; for GI50: Homo sapiens, read-out: GI50 PC-3 (prostate ancer)
Procedure: as §1, §2

[3] = tested on: NUGC-3 (gastric cancer); test: Test for inhibition of tumor cell growth (SRB), NUGC-3; conditions: 48 hours, SRB staining; for GI50: Homo sapiens, NUGC-3
Procedure: as §1, §2

[4] = tested on: MBA-MB-231 (breast cancer); test: Test for inhibition of tumor cell growth (SRB), MBA-MB-231; conditions: 48 hours, SRB staining; for GI50: Homo sapiens
Procedure: as §1, §2

Structure (SMILES)	GI50 [1]	GI50 [2]	GI50 [3]	GI50 [4]	GI50 ACHN (kidney cancer) [1]	GI50 PC-3 (prostate ancer) [2]	GI50 NUGC-3 (gastric cancer) [3]	GI50 MBA-MB-231 (breast cancer) [4]
C=CC[N+]1(C)CCN(C(=O)CCCCCCCCCCCCCCCCCCC)CC1 [Example 33, 1-allyl-4-icosanoyl-1-methylpiperazin-1-ium bromide]	> 10 µg/mL	4.29 µg/mL	3.45 µg/mL	> 10 µg/mL				
CCCCCCCCCCCCCCCCCCCCCC(=O)N1CC[N+](C)(CC)CC1 [Example 34, 4-docosanoyl-1-ethyl-1-methylpiperazin-1-ium iodide]	1.9 µg/mL	0.85 µg/mL	1.22 µg/mL	2.01 µg/mL				
C=CC[N+]1(C)CCN(C(=O)CCCCCCCCCCCCCCCCCCCCC)CC1 [Example 36, 1-allyl-4-docosanoyl-1-methylpiperazin-1-ium bromide]	2.37 µg/mL	0.96 µg/mL	1.53 µg/mL	3.16 µg/mL				
CCCCCCCCCCCCCCCCCCCCCCCC(=O)N1CC[N+](C)(Cc2ccccc2)CC1 [Example 40, 1-benzyl-1-methyl-4-tetracosanoylpiperazin-1-ium bromide]	> 10 µg/mL	4.79 µg/mL	> 10 µg/mL	> 10 µg/mL				
C=CC[N+]1(C)CCN(C(=O)CCCCCCCCCCCCCCCCCCCCCCC)CC1 [Example 41, 1-allyl-1-methyl-4-tetracosanoylpiperazin-1-ium bromide]	> 10 µg/mL	3.36 µg/mL	> 10 µg/mL	> 10 µg/mL				
CCCCCCCCCCCCCCCCCCCCCCCC(=O)N1CC[N+](C)(CC)CC1 [Example 42, 1-ethyl-1-methyl-4-tetracosanoylpiperazin-1-ium iodide]	> 10 µg/mL	3.77 µg/mL	> 10 µg/mL	> 10 µg/mL				
C=CCCCCCCCCC(=O)N1CC[N+](C)(CC=C)CC1 [Example 43, 1-allyl-1-methyl-4-undec-10-enoyl-piperazin-1-ium bromide]	> 10 µg/mL	1.32 µg/mL	> 10 µg/mL	> 10 µg/mL				
C=CCCCCCCCCC(=O)N1CC[N+](C)(Cc2ccccc2)CC1 [Example 44, 1-benzyl-1-methyl-4-undec-10-enoyl-piperazin-1-ium bromide]	> 10 µg/mL	0.41 µg/mL	> 10 µg/mL	> 10 µg/mL				
C=CCCCCCCCCC(=O)N1CC[N+](C)(C)CC1 [Example 45, 1,1-dimethyl-4-undec-10-enoyl-piperazin-1-ium iodide]	> 10 µg/mL	2.02 µg/mL	> 10 µg/mL	> 10 µg/mL				
CCCCCCCCCCCC(=O)N1CC[N+](CC)(Cc2cccc(F)c2)CC1.[Br-] [Example 54]					3.78 µg/mL	0.53 µg/mL	1.61 µg/mL	4.71 µg/mL
CCCCCCCCCCCCCCCCCCS(=O)(=O)N1CC[N+](C)(CC)CC1 [Example 59, 1-ethyl-1-methyl-4-(octadecane-1-sulfonyl)piperazin-1-ium iodide]	1.07 µg/mL	0.84 µg/mL	0.66 µg/mL	2.05 µg/mL				
C=CC[N+]1(CC)CCN(S(=O)(=O)CCCCCCCC)CC1 [Example 60, 1-allyl-1-ethyl-4-(octane-1-sulfonyl)piperazin-1-ium bromide]	> 10 µg/mL	> 10 µg/mL	> 10 µg/mL	> 10 µg/mL				
C=CC[N+]1(C)CCN(S(=O)(=O)CCCCCCCC)CC1 [Example 61, 1-allyl-1-methyl-4-(octane-1-sulfonyl)piperazin-1-ium bromide]	> 10 µg/mL	> 10 µg/mL	> 10 µg/mL	> 10 µg/mL				
CCCCCCCCS(=O)(=O)N1CC[N+](C)(Cc2ccccc2)CC1 [Example 62, 1-benzyl-1-methyl-4-(octane-1-sulfonyl)piperazin-1-ium bromide]	> 10 µg/mL	> 10 µg/mL	> 10 µg/mL	> 10 µg/mL				
CCCCCCCCCCCS(=O)(=O)N1CC[N+](CC)(Cc2ccccc2)CC1 [Example 64, 1-benzyl-1-ethyl-4-(undecane-1-sulfonyl)piperazin-1-ium bromide]	1.43 µg/mL	0.67 µg/mL	0.36 µg/mL	2.07 µg/mL				
CCCCCCCCCCCS(=O)(=O)N1CC[N+](C)(Cc2ccccc2)CC1 [Example 65, 1-benzyl-1-methyl-4-(undecane-1-sulfonyl)piperazin-1-ium bromide]	1.16 µg/mL	0.42 µg/mL	0.37 µg/mL	0.82 µg/mL				
CCCCCCCCCCCS(=O)(=O)N1CC[N+](C)(Cc2ccc(F)cc2)CC1 [Example 66, 1-(4-fluorobenzyl)-1-methyl-4-(undecane-1-sulfonyl)piperazin-1-ium bromide]	1.24 µg/mL	0.56 µg/mL	1.06 µg/mL	1.47 µg/mL				
C=CC[N+]1(CC)CCN(S(=O)(=O)CCCCCCCCCCCCCC)CC1 [Example 67, 1-allyl-1-ethyl-4-(tetradecane-1-sulfonyl)piperazin-1-ium bromide]	0.51 µg/mL	0.87 µg/mL	0.6 µg/mL	1.05 µg/mL				

Continued, in another order:

GI50 [1]	GI50 [2]	GI50 [3]	GI50 [4]	Structure (SMILES)	GI50 ACHN (kidney cancer) [1]	GI50 PC-3 (prostate ancer) [2]	GI50 NUGC-3 (gastric cancer) [3]	GI50 MBA-MB-231 (breast cancer) [4]
1.39 µg/mL	0.31 µg/mL	0.42 µg/mL	1.63 µg/mL	CCCCCCCCCCCCCCCCCCCC(=O)N1CC[N+](C)(C)CC1 [Example 31, 4-icosanoyl-1,1-dimethylpiperazin-1-ium iodide]				
1.89 µg/mL	0.59 µg/mL	1.1 µg/mL	1.66 µg/mL	CCCCCCCCCCCCCCCCCCCC(=O)N1CC[N+](C)(Cc2ccccc2)CC1 [Example 32, 1-benzyl-4-icosanoyl-1-methylpiperazin-1-ium bromide]				
4.74 µg/mL	1.24 µg/mL	1.9 µg/mL	1.98 µg/mL	CCCCCCCCCCCCCCCCCCCCCC(=O)N1CC[N+](C)(Cc2ccccc2)CC1 [Example 35, 1-benzyl-4-docosanoyl-1-methylpiperazin-1-ium bromide]				
> 10 µg/mL	> 10 µg/mL	> 10 µg/mL	> 10 µg/mL	CCCCCCCCCCCCCCCCCCCCCC(=O)N1CC[N+](CC)(Cc2ccccc2)CC1 [Example 37, 1-benzyl-4-docosanoyl-1-ethylpiperazin-1-ium bromide]				
3.38 µg/mL	1.47 µg/mL	1.54 µg/mL	2.53 µg/mL	C=CC[N+]1(CC)CCN(C(=O)CCCCCCCCCCCCCCCCCCCCC)CC1 [Example 38, 1-allyl-4-docosanoyl-1-ethylpiperazin-1-ium bromide]				
5.13 µg/mL	4.57 µg/mL	3.64 µg/mL	> 10 µg/mL	CCCCCCCCCCCCCCCC(=O)N1CC[N+](CC)(Cc2cccc([N+](=O)[O-])c2)CC1 [Example 47, 1-ethyl-1-(3-nitrobenzyl)-4-palmitoylpiperazin-1-ium bromide]				
1.43 µg/mL	0.68 µg/mL	1.19 µg/mL	1.49 µg/mL	CCCCCCCCCCCCCCCCCC(=O)N1CC[N+](CC)(Cc2ccc(F)cc2)CC1 [Example 48, 1-ethyl-1-(4-fluorobenzyl)-4-stearoylpiperazin-1-ium bromide]				
3.08 µg/mL	3.14 µg/mL	3.63 µg/mL	5.38 µg/mL	CCCCCCCCCCCCCCCCCC(=O)N1CC[N+](CC)(Cc2cccc([N+](=O)[O-])c2)CC1 [Example 49, 1-ethyl-1-(3-nitrobenzyl)-4-stearoylpiperazin-1-ium bromide]				
1.94 µg/mL	0.95 µg/mL	2.49 µg/mL	2.3 µg/mL	CCCCCCCCCCCCCCCCCC(=O)N1CC[N+](CC)(Cc2ccc(Br)cc2)CC1 [Example 50, 1-(4-bromobenzyl)-1-ethyl-4-stearoylpiperazin-1-ium bromide]				
1.85 µg/mL	0.52 µg/mL	1.05 µg/mL	1.42 µg/mL	CCCCCCCCCCCCCC(=O)N1CC[N+](CC)(Cc2cccc(F)c2)CC1 [Example 51, 1-ethyl-1-(3-fluorobenzyl)-4-tetradecanoylpiperazin-1-ium bromide]				
2.08 µg/mL	0.51 µg/mL	0.88 µg/mL	1.6 µg/mL	CCCCCCCCCCCCCC(=O)N1CC[N+](CC)(Cc2cccc(C)c2)CC1 [Example 52, 1-ethyl-1-(3-methylbenzyl)-4-tetradecanoylpiperazin-1-ium bromide]				
4.84 µg/mL	0.57 µg/mL	3.52 µg/mL	3.95 µg/mL	CCCCCCCCCCCC(=O)N1CC[N+](CC)(Cc2cccc([N+](=O)[O-])c2)CC1 [Example 53, 4-dodecanoyl-1-ethyl-1-(3-nitrobenzyl)piperazin-1-ium bromide]				
0.93 µg/mL	0.63 µg/mL	0.46 µg/mL	1.52 µg/mL	CCCCCCCCCCCCCCCCCC(=O)N1CC[N+](CC)(Cc2cccc(C)c2)CC1 [Example 58, 1-ethyl-1-(3-methylbenzyl)-4-stearoylpiperazin-1-ium bromide]				
